From article PMC9758846, “Dinuclear and mononuclear metal(II) polypyridyl complexes against drug-sensitive and drug-resistant Plasmodium falciparum and their mode of action” (Malaria Journal, 2022)

Key:
[1] = test system: B+ blood red blood cells (RBC); experiment: In vitro haemolytic assay; assay type: cell-based, human; conditions: up to 25 µM; 72 h
Protocol: Fresh B+ blood was washed with RPMI1640 medium containing of 30 µg/mL gentamicin (Gibco) and centrifuged at 1000 xg for 10 min three times. The percentage of haemolysis was determined spectroscopically using 5% haematocrit containing test compound at increasing concentration and incubated for 72 h at 37 °C [19, 20]. Untreated blood acted as negative control while blood treated with sterile distilled water acted as positive control (for 100% haemolysis).

[2] = test system: Pf5202; experiment: Intracellular ROS level using DCFH-DA; assay type: cell-based, Plasmodium falciparum
Protocol: (§1) After incubation, packed cells were washed with phosphate buffer saline (PBS) solution. […] The data was expressed as fold change between amount of ROS produced by treated P. falciparum against untreated P. falciparum. Normalization was done with the percentage of parasite viability obtained at each condition. Hydrogen peroxide was used as positive control.

[3] = test system: Pf3D7; experiment: Intracellular ROS level using DCFH-DA; assay type: cell-based, Plasmodium falciparum
Protocol: as §1

[4] = Solution stability by molar conductivity and visible absorptivity; assay type: physicochemical; conditions: 24, 48 and 72 h; room temperature
Protocol: Series of 10 mM stock solutions were prepared by dissolving the compounds in their respective solvents: phen and 4,4′-bipy in 95% ethanol; Cu(NO3)2·3H2O, Zn(NO3)2·6H2O, (1) and (2) in double distilled water; (3) and (4) in DMSO. All the stock solutions were further diluted with double distilled water to obtain 10 mL of 30 µM, 1 mM and 5 mM for their respective studies, viz. 30 µM for ultraviolet spectral studies, 1 mM for conductivity measurement and 5 mM for visible spectral studies. For the water-DMSO solutions of both complexes (3) and (4), the 30 µM, 1 mM and 5 mM solutions have […], 10% DMSO and 50% DMSO respectively. The absorbance at λmax and conductance were of the aqueous solutions were measured at 0, 24, 48 and 72 h. The molar absorptivity and molar conductivity of the metal(II) complex solutions and their precursors were then calculated.

[5] = PNDA assay of •OH radicals from reaction with H2O2; conditions: for Concentration of •OH radical: 30 µM compound with excess H2O2
Protocol: A previously reported spectrometric assay using PNDA was used to quantify the amount of reactive oxygen species (ROS), viz. •OH radicals, produced by the reaction of metal(II) complexes with hydrogen peroxide in borate buffer at pH 7.5 [24–26]. The percentage of PNDA bleaching and the concentration of •OH produced were determined.

Structure (SMILES): O.O.O=[N+]([O-])[O-].O=[N+]([O-])[O-].[Zn+2].c1cnc2c(c1)ccc1cccnc12.c1cnc2c(c1)ccc1cccnc12 [Complex 2, [Zn(phen)2](NO3)2·2H2O]
- Haemolysis on B+ blood (in words) [1]: no haemolysis
- fold change in ROS ([2]; 24 h, 0.2 µM): 1.07 ± 0.05 fold
- fold change in ROS ([2]; 24 h, 1.0 µM): 1.10 ± 0.09 fold
- fold change in ROS ([2]; 24 h, 5.0 µM): 1.00 ± 0.02 fold
- fold change in ROS ([2]; 24 h, 25.0 µM): 1.04 ± 0.06 fold
- fold change in ROS ([2]; 72 h, 0.2 µM): 0.00 ± 0.03 fold
- fold change in ROS ([2]; 72 h, 1.0 µM): 0.34 ± 0.04 fold
- fold change in ROS ([2]; 72 h, 5.0 µM): 0.16 ± 0.04 fold
- fold change in ROS ([3]; 24 h, 0.2 µM): 0.07 ± 0.08 fold
- fold change in ROS ([3]; 24 h, 1.0 µM): 0.39 ± 0.19 fold
- fold change in ROS ([3]; 24 h, 5.0 µM): 0.45 ± 0.10 fold
- fold change in ROS ([3]; 24 h, 25.0 µM): 2.61 ± 0.12 fold
- fold change in ROS ([3]; 48 h, 0.2 µM): 1.9 ± 0.38 fold
- fold change in ROS ([3]; 48 h, 1.0 µM): 2.13 ± 0.21 fold
- fold change in ROS ([3]; 48 h, 5.0 µM): 2.95 ± 0.18 fold
- fold change in ROS ([3]; 48 h, 25.0 µM): 2.48 ± 0.26 fold
- fold change in ROS ([3]; 72 h, 25.0 µM): 0.70 ± 0.05 fold
- Stability of aqueous solution (molar conductivity; for (1) also visible molar absorptivity) [4]: remains practically unchanged
- Concentration of •OH radical ([5]; 2 h): 0.01 ± 0.08 µM
- Concentration of •OH radical ([5]; 4 h): 0.08 ± 0.03 µM
- Concentration of •OH radical ([5]; 24 h): 0.20 ± 0.16 µM
- Concentration of •OH radical ([5]; 48 h): 0.21 ± 0.05 µM
- Concentration of •OH radical ([5]; 72 h): 0.28 ± 0.08 µM
- Generation of ·OH radicals (in words) ([5]; equimolar test compound with excess H2O2): did not generate any ·OH radicals
